Reference: US20250313549A1, “HERBICIDAL DERIVATIVES” (SYNGENTA CROP PROTECTION AG, priority 2021, published 2025)

Key:
Format in all cases: in vivo
Setaria faberi (SETFA) [1] = experiment: Pre-emergence test, herbicidal damage; conditions: 1000 g/ha, evaluated after 13 days
Zea mays (ZEAMX) [2] = experiment: Pre-emergence test, herbicidal damage; conditions: 1000 g/ha, evaluated after 13 days
[3] = test system: Ipomoea hederacea (IPOHE); experiment: Pre-emergence test, herbicidal damage; conditions: 1000 g/ha, evaluated after 13 days
[4] = test system: Echinochloa crus-galli (ECHCG); experiment: Post-emergence test, herbicidal damage; conditions: sprayed after 8 days cultivation, 1000 g/ha, evaluated after 13 days
Description: (§1) Seeds of a variety of test species are sown in standard soil in pots (Amaranthus retoflexus (AMARE), Echinochloa crus-galli (ECHCG), Amaranthus palmeri (AMAPA), Setaria faberi (SETFA), Zea mays (ZEAMX), Ipomoea hederacea (IPOHE)). After 8 days cultivation under controlled conditions in a glasshouse (at 24° C./16° C., day/night; 14 hours light; 65% humidity), the plants are sprayed with an aqueous spray solution derived from the formulation of the technical active ingredient in acetone/water (50:50) solution containing 0.5% Tween 20 (polyoxyethylene sorbitan monolaurate, CAS RN 9005-64-5). Compounds are applied at 1000 g/ha unless otherwise stated. The test plants are then grown in a glasshouse under controlled conditions in a glasshouse (at 24° C./16° C., day/night; 14 hours light; 65% humidity) and watered twice daily. After 13 days the test is evaluated for the percentage damage caused to the plant. The biological activities are shown in the following table on a five-point scale (5=81-100%; 4=61-80%; 3=41-60%; 2=21-40%; 1=10-20%; 0=0%; -=not tested).

Zea mays (ZEAMX) [5] = experiment: Post-emergence test, herbicidal damage; conditions: sprayed after 8 days cultivation, 1000 g/ha, evaluated after 13 days
Description: as §1

Setaria faberi (SETFA) [6] = experiment: Post-emergence test, herbicidal damage; conditions: sprayed after 8 days cultivation, 1000 g/ha, evaluated after 13 days
Description: as §1

[7] = test system: Ipomoea hederacea (IPOHE); experiment: Post-emergence test, herbicidal damage; conditions: sprayed after 8 days cultivation, 1000 g/ha, evaluated after 13 days
Description: as §1

[8] = test system: Amaranthus palmeri (AMAPA); experiment: Post-emergence test, herbicidal damage; conditions: sprayed after 8 days cultivation, 1000 g/ha, evaluated after 13 days
Description: as §1

[9] = test system: Amaranthus retoflexus (AMARE); experiment: Post-emergence test, herbicidal damage; conditions: sprayed after 8 days cultivation, 1000 g/ha, evaluated after 13 days
Description: as §1

[10] = test system: Amaranthus palmeri (AMAPA); experiment: Pre-emergence test, herbicidal damage; conditions: 1000 g/ha, evaluated after 13 days
[11] = test system: Amaranthus retoflexus (AMARE); experiment: Pre-emergence test, herbicidal damage; conditions: 1000 g/ha, evaluated after 13 days
[12] = test system: Echinochloa crus-galli (ECHCG); experiment: Pre-emergence test, herbicidal damage; conditions: 1000 g/ha, evaluated after 13 days

Structure (SMILES)	percentage damage caused to the plant, SETFA (Setaria faberi (SETFA) [1])	percentage damage caused to the plant, ZEAMX (Zea mays (ZEAMX) [2])	percentage damage caused to the plant, IPOHE [3]	percentage damage caused to the plant, ECHCG [4]	percentage damage caused to the plant, ZEAMX (Zea mays (ZEAMX) [5])	percentage damage caused to the plant, SETFA (Setaria faberi (SETFA) [6])	percentage damage caused to the plant, IPOHE [7]	percentage damage caused to the plant, AMAPA [8]	percentage damage caused to the plant, AMARE [9]	percentage damage caused to the plant, AMAPA [10]	percentage damage caused to the plant, AMARE [11]	percentage damage caused to the plant, ECHCG [12]
CCOC(=O)c1nn(-c2ccc(OC(F)F)nc2)c2cccc(Br)c2c1=O [Compound 36, ethyl 5-bromo-1-[6-(difluoromethoxy)-3-pyridyl]-4-oxo-cinnoline-3-carboxylate]	1 (1=10-20%)	1 (1=10-20%)	0 (0=0%)	0 (0=0%)	0 (0=0%)	1 (1=10-20%)	1 (1=10-20%)	0 (0=0%)	2 (2=21-40%)	1 (1=10-20%)	0 (0=0%)	0 (0=0%)
CCOC(=O)c1nn(-c2cc(OC)ncn2)c2cccc(Br)c2c1=O [Compound 32, ethyl 5-bromo-1-(6-methoxypyrimidin-4-yl)-4-oxo-cinnoline-3-carboxylate]	1 (1=10-20%)	0 (0=0%)	0 (0=0%)	0 (0=0%)	0 (0=0%)	0 (0=0%)	1 (1=10-20%)	1 (1=10-20%)	1 (1=10-20%)	0 (0=0%)	0 (0=0%)	1 (1=10-20%)
